Test results published in PubChem BioAssay (NCI).
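1) Cells in 96-well plates. 2) Compound, 48 h, 5 concentrations. 3) Linear interpolation between surrounding doses. 4) Unreached endpoint = highest concentration. TGI is the concentration that stops growth completely.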

Legend:
Test in all cases: inhibition of tumour cell growth, NCI panel, 48 h
CAKI-1 renal = test system: CAKI-1 renal
ACHN renal = test system: ACHN renal
HCC-2998 colon = test system: HCC-2998 colon
RXF 393 renal = test system: RXF 393 renal
PC-3 prostate = test system: PC-3 prostate
COLO 205 colon = test system: COLO 205 colon
A549 NSCLC = test system: A549 NSCLC
OVCAR-5 ovarian = test system: OVCAR-5 ovarian
KM12 colon = test system: KM12 colon
SF-539 CNS = test system: SF-539 CNS
MDA-N = test system: MDA-N
K-562 leukemia = test system: K-562 leukemia
NCI-H23 lung = test system: NCI-H23 lung
LOX IMVI melanoma = test system: LOX IMVI melanoma
MDA-MB-435 = test system: MDA-MB-435
HCT-116 colon = test system: HCT-116 colon
UACC-257 melanoma = test system: UACC-257 melanoma
SNB-19 CNS = test system: SNB-19 CNS
SK-MEL-28 melanoma = test system: SK-MEL-28 melanoma
HS 578T breast = test system: HS 578T breast

SMILES | TGI (CAKI-1 renal) [µM] | TGI (ACHN renal) [µM] | TGI (HCC-2998 colon) [µM] | TGI (RXF 393 renal) [µM] | TGI (PC-3 prostate) [µM] | TGI (COLO 205 colon) [µM] | TGI (A549 NSCLC) [µM] | TGI (OVCAR-5 ovarian) [µM] | TGI (KM12 colon) [µM] | TGI (SF-539 CNS) [µM] | TGI (MDA-N) [µM] | TGI (K-562 leukemia) [µM] | TGI (NCI-H23 lung) [µM] | TGI (LOX IMVI melanoma) [µM] | TGI (MDA-MB-435) [µM] | TGI (HCT-116 colon) [µM] | TGI (UACC-257 melanoma) [µM] | TGI (SNB-19 CNS) [µM] | TGI (SK-MEL-28 melanoma) [µM] | TGI (HS 578T breast) [µM]
CCC(CCCCC1CC[C@H]2CC(=O)C[C@@H]12)OC (stereo not given in full) | > 100 | > 100 | > 100 | > 100 | > 100 | > 100 | > 100 | > 100 | > 100 | > 100 | > 100 | 66.1 | > 100 | > 100 | > 100 | > 100 | > 100 | > 100 | > 100 | > 100
CC(C)C(/C=C/c1ccc(Cl)cc1)=N\NC(=S)NN | > 100 | 65.6 | > 100 | 96.6 | > 100 | > 100 | > 100 | > 100 | > 100 | > 100 | > 100 | > 100 | > 100 | 33.7 | 85.2 | 11.4 | 98.9 | > 100 | > 100 | 72.3
CC(=O)OCC(OC(C)=O)C(OC(C)=O)C(OC(C)=O)C(/C=N\Nc1nc2ccccc2c(=O)[nH]1)OC(C)=O (stereo not given) | > 100 | > 100 | > 100 | > 100 | > 100 | > 100 | > 100 | > 100 | > 100 | > 100 | > 100 | > 100 | > 100 | > 100 | > 100 | > 100 | > 100 | > 100 | > 100 | > 100
CC1(c2nc3cc(Cl)c(Cl)cc3[nH]2)CCC(C(=O)O)C(C)(C)O1 (stereo not given) | > 100 | > 100 | > 100 | > 100 | > 100 | > 100 | > 100 | > 100 | > 100 | > 100 | > 100 | > 100 | > 100 | > 100 | > 100 | > 100 | > 100 | > 100 | > 100 | > 100
C/C(=C\[C@H]1C[C@@H]([C@@H]2CC[C@]34C[C@]23C=C[C@@H]2[C@@]3(C)CC=C5C[C@@H](c6ccccc6)OC[C@]5(C)[C@@H]3C[C@@H](O)[C@]24C)C(=O)O1)CO | 28.3 | 34.8 | > 26.4 | > 100 | > 55.6 | 5.11 | > 100 | 34.2 | 15.3 | 35.1 | 13.2 | > 100 | 36 | > 100 | > 100 | > 100 | 30.7 | > 86.7 | > 100 | > 72.2
O=C(NO)c1ccc(OCc2ccccc2)cc1 | 54.2 | 88.8 | > 100 | > 100 | > 100 | 77.6 | > 100 | > 100 | > 100 | > 100 | > 100 | > 100 | 28.1 | 55.8 | > 100 | 27.4 | > 100 | > 100 | > 100 | > 100
CCOC(=O)c1nc2ccc(C(F)(F)F)cc2nc1Nc1ccc(OC)c(OC)c1 | 86.5 | > 100 | > 100 | > 100 | > 100 | > 100 | > 100 | > 100 | > 100 | > 100 | > 100 | > 100 | > 100 | > 100 | > 100 | > 100 | > 100 | > 100 | > 100 | > 100
CN(C)CC1CN(C(=O)Nc2ccccc2)C(=N)O1 (stereo not given) | > 100 | > 100 | > 100 | > 100 | > 100 | > 100 | > 100 | > 100 | > 100 | > 100 | > 100 | > 100 | > 100 | > 100 | > 100 | > 100 | > 100 | > 100 | > 100 | > 100
CCNC(=O)Cc1nc2c(=O)[nH]cnc2n1C1OC(CO)C(O)C1O (stereo not given) | > 100 | > 100 | > 100 | > 100 | > 100 | > 100 | > 100 | > 100 | > 100 | > 100 | > 100 | > 100 | > 100 | > 100 | > 100 | > 100 | > 100 | > 100 | > 100 | > 100
O=C1c2cccnc2-c2nccc3ccnc1c23 | 1.32 | 1.46 | 3.41 | 2.52 | 3.45 | 1.12 | 6.82 | 4.2 | 2.66 | 4.81 | 0.465 | 0.666 | 2.11 | 2.22 | 0.38 | 0.0784 | 2.27 | 10.9 | 2.58 | > 28.3
COc1cc(CNC(=O)CCCCCCCCCCSSCCCCCCCCCCC(=O)NCc2ccc(O)c(OC)c2)ccc1O | > 10 | > 10 | > 10 | > 10 | > 10 | > 10 | > 10 | > 10 | > 10 | > 10 | > 10 | > 10 | > 10 | > 10 | > 10 | > 10 | > 10 | > 10 | > 10 | > 10
CN(C)C1COC2Cc3ccccc3C1O2 (stereo not given) | > 100 | > 100 | > 100 | > 100 | > 100 | > 100 | > 100 | > 100 | > 100 | > 100 | > 100 | > 100 | > 100 | > 100 | > 100 | > 100 | > 100 | > 100 | > 100 | > 100
Nc1nc(Cl)cc(NCC2(CO)CC(Cc3ccccc3)C2)n1 (stereo not given) | > 100 | > 100 | > 88.6 | > 93.5 | > 90.8 | > 59.6 | > 100 | > 100 | > 100 | > 100 | > 86.9 | > 81.6 | > 100 | > 100 | > 78.1 | > 100 | > 82.3 | > 100 | > 100 | > 100
O=C(O)CCCC#CCCCC(=O)O | > 100 | > 100 | > 100 | > 100 | > 100 | > 100 | > 100 | > 100 | > 100 | > 100 | > 100 | > 100 | > 100 | > 100 | > 100 | > 100 | > 100 | > 100 | > 100 | > 100
Cc1ccc2cccc(OC(=O)c3cc4c(cc3Cl)Sc3nccn3S4(=O)=O)c2n1 | > 79.9 | 38.7 | 13.1 | 20.5 | 14.7 | 29.4 | 28.5 | > 61.2 | 18.7 | 17.2 | > 96 | 23.9 | 63.6 | 19.8 | 26.1 | 18.9 | 25.4 | 46.3 | 30.8 | > 100
O=C1/C(=C/c2ccc(O)cc2)CCc2ccccc21 | 91.5 | 69.5 | 43.6 | 35.1 | 39.2 | 40.5 | 64.1 | > 91 | 32.2 | 38.4 | 57.7 | 81.3 | 55.2 | 49.2 | 52.8 | 31.6 | 35.8 | 50.7 | 37 | 94.3
Cc1c(C)c(C)c(CSC(=N)N)c(C)c1C | 25.8 | 30.1 | 27.8 | 33.2 | 24.6 | 28.1 | 30.9 | 29.8 | 39.3 | 29.1 | 40.3 | 30.2 | 33.4 | 79.2 | 31.3 | 30 | 27.3 | 27.9 | 28.8 | 36.4
N=c1c2ccccc2nc2oc3ccc(Cl)cc3n12 | 37.5 | 28.4 | > 100 | 26.1 | > 100 | > 100 | 97 | 47.1 | > 100 | 32 | > 100 | > 100 | 34.2 | 26.8 | > 100 | 69.3 | > 100 | > 100 | > 100 | 20.3
Cc1ccc(OCCn2cc(Nc3ccccc3)c(=O)[nH]c2=O)cc1 | > 100 | > 100 | > 100 | > 100 | > 100 | > 100 | > 100 | > 100 | > 100 | > 100 | > 100 | > 100 | > 100 | > 100 | > 100 | > 100 | > 100 | > 100 | > 100 | > 100
Cc1nn(C(=O)c2ccncc2)c2c1C(c1ccccc1O)SC(N)=N2 (stereo not given) | > 10 | > 10 | > 10 | > 10 | > 10 | > 10 | > 10 | > 10 | > 10 | > 10 | > 10 | > 10 | > 10 | > 10 | > 10 | > 10 | > 10 | > 10 | > 10 | > 10
CCOC(=O)C(SCCO)C(C(=O)OCC)n1cc(C)c(=O)[nH]c1=O (stereo not given) | 18.2 | > 57.1 | > 78.9 | 43.7 | 34.6 | 23.3 | > 100 | 32.1 | > 63.1 | > 65.3 | 64.4 | 15.8 | > 78.7 | 19.2 | > 56.1 | 22.6 | > 84.6 | > 100 | > 65.6 | > 100
c1ccc(-c2cc(-c3cc(-c4ccccc4)no3)on2)cc1 | > 100 | > 100 | > 100 | > 100 | > 100 | > 100 | > 100 | > 100 | > 100 | 33.4 | > 100 | 49 | > 100 | > 100 | > 100 | > 100 | > 100 | > 100 | > 100 | > 100
CN(CCNC(=O)c1cc(-c2ccccc2)nc2ccccc12)CCNC(=O)c1cc(-c2ccccc2)nc2ccccc12 | > 100 | > 100 | 5.54 | > 57.7 | > 100 | 4.71 | > 100 | > 55.7 | > 40.5 | 21.3 | 32.2 | > 36.7 | > 100 | 16 | 13.1 | > 46.4 | 10.2 | > 100 | 5.29 | 99.4
